Reference: ChEMBL document CHEMBL3046877, “Synthesis and bioevaluation of novel arylnaphthalene lignans as anticancer agents” (Med Chem Res, 2013)
The source made the active and inactive calls. The calls are words filed in the database; no cut-off is given here.

What was measured:
[1] = tested on: HEK293; test: Cytotoxicity against Homo sapiens (human) HEK293 cells assessed as decrease in cell growth after 3 days by MTT assay; format: cell-based; details: HEK293, 72 h
[2] = tested on: KB; test: Anticancer activity against Homo sapiens (human) KB cells assessed as decrease in cell growth after 3 days by MTT assay; format: functional, cell-based; details: 72 h
[3] = tested on: HCT-116; test: Anticancer activity against Homo sapiens (human) HCT116 cells assessed as decrease in cell growth after 3 days by MTT assay; format: functional, cell-based; details: HCT-116, 72 h
[4] = tested on: A549; test: Anticancer activity against Homo sapiens (human) A549 cells assessed as decrease in cell growth after 3 days by MTT assay; format: functional, cell-based; details: A549, 72 h
[5] = tested on: SW480; test: Anticancer activity against Homo sapiens (human) SW480 cells assessed as decrease in cell growth after 3 days by MTT assay; format: functional, cell-based; details: SW480, 72 h
[6] = tested on: KB; test: Induction of apoptosis in Homo sapiens (human) KB cells assessed as increase in Bax expression at 5 to 15 uM after 72 hr by western blot analysis; format: functional, cell-based
[7] = tested on: KB; test: Induction of apoptosis in Homo sapiens (human) KB cells assessed as plasma membrane blebbing at 5 to 10 uM after 72 hr by AO/EB double staining based fluorescence microscopic analysis; format: functional, cell-based
[8] = tested on: KB; test: Induction of apoptosis in Homo sapiens (human) KB cells assessed as decrease in Bcl-2 expression at 5 to 15 uM after 72 hr by western blot analysis; format: functional, cell-based

IC50 [2] [µM]	IC50 [3] [µM]	IC50 [4] [µM]	IC50 [5] [µM]	SMILES	IC50 [1] [µM]	Activity [6]	Activity [7]	inhibition [8]
20.6	> 100	> 100	> 100	COc1ccc(-c2c3c(c(O)c4cc(OC)c(OC)cc24)COC3=O)cc1	> 100	–	–	–
> 100	88.5	> 100	> 100	COc1cccc(-c2c3c(c(O)c4cc(OC)c(OC)cc24)COC3=O)c1	> 100	–	–	–
> 100	> 100	> 100	> 100	COc1ccc(OC)c(-c2c3c(c(O)c4cc(OC)c(OC)cc24)COC3=O)c1	> 100	–	–	–
–	48.5	–	–	COc1cc2c(O)c3c(c(-c4ccc5c(c4)OCO5)c2cc1OC)C(=O)OC3 [DIPHYLLIN]	> 100	–	–	–

More lines, now with the values behind:

SMILES	IC50 [2] [µM]	IC50 [3] [µM]	IC50 [4] [µM]	IC50 [5] [µM]	IC50 [1] [µM]	Activity [6]	Activity [7]	inhibition [8]
COc1cc([C@@H]2c3cc4c(cc3[C@@H](O[C@@H]3O[C@@H]5CO[C@@H](C)O[C@H]5[C@H](O)[C@H]3O)[C@H]3COC(=O)[C@H]23)OCO4)cc(OC)c1O [ETOPOSIDE]	–	–	–	–	> 100	–	–	–
COc1cc2c(O)c3c(c(-c4ccccc4)c2cc1OC)C(=O)OC3	> 100	> 100	> 100	> 100	> 100	–	–	–
COc1cc2c(O)c3c(c(-c4ccc(C)cc4)c2cc1OC)C(=O)OC3	15.1	> 100	> 100	> 100	> 100	–	–	–
COc1cc(OC)cc(-c2c3c(c(O)c4cc(OC)c(OC)cc24)COC3=O)c1	5.1	29.3	> 100	5.6	> 100	Active	Active	Active
COc1ccc(-c2c3c(c(O)c4cc(OC)c(OC)cc24)COC3=O)cc1OC	> 100	> 100	> 100	> 100	> 100	–	–	–
COc1cc2c(O)c3c(c(-c4ccccc4OC)c2cc1OC)C(=O)OC3	> 100	> 100	> 100	22.8	> 100	–	–	–
COc1cc2c(O)c3c(c(-c4cc(OC)c(OC)c(OC)c4)c2cc1OC)C(=O)OC3	23.2	> 100	97.2	> 100	> 100	–	–	–
